Format in all cases: cell-based
One assay has as its system M. Smegmatis ATCC607. In words: In-vitro anti-bacterial activity against strain M. smegmatis ATCC607. The settings on record: for IC90: Mycolicibacterium smegmatis. On the procedure: Flat-bottom, sterile 96-well plastic microtiter plates were filled with 180 μl of sterile deionized water, supplemented with 0.25% BSA. Subsequently, stock solutions (7.8× final test concentration) of compounds were added in 45 μl volumes to a series of duplicate wells in column 2 so as to allow evaluation of their effects on bacterial growth. Serial five-fold dilutions (45 μl in 180 μl) were made directly in the microtiter plates from column 2 to 11 using a customised robot system (Zymark Corp., Hopkinton, Mass.). Pipette tips were changed after every 3 dilutions to minimize pipetting errors with high hydrophobic compounds. Untreated control samples with (column 1) and without (column 12) inoculum were included in each microtiter plate. Approximately 250 CFU per well of bacteria inoculum, in a volume of 100 μl in 2.8× Mueller-Hinton broth medium, was added to the rows A to H, except column 12. The same volume of broth medium without inoculum was added to column 12 in row A to H. The cultures were incubated at 37° C. for 48 hours in a humidified 5% CO2 atmosphere (incubator with open air valve and continuous ventilation). At the end of incubation, two days after inoculation, the bacterial growth was quantitated fluorometrically. Therefore Alamar Blue (10×) was added to all wells in a volume of 20 μl and plates were incubated for another 2 hours at […]
The fluorescence was read in a computer-controlled fluorometer (Cytofluor, Biosearch) at an excitation wavelength of 530 nm and an emission wavelength of 590 nm (gain 30).

Assay [1] deals with Staphylococcus aureus (ATCC29213). Description: Microtitre plate assay, IC90 determination, STA 29213. On the procedure:
(§1) The bacteria used in this study were grown overnight in flasks containing 100 ml Mueller-Hinton Broth (Becton Dickinson—cat. no. 275730) in sterile de-ionized water, with shaking, at 37° C. Stocks (0.5 ml/tube) were stored at −70° C. until use. Bacteria titrations were performed in microtiter plates to detect the TCID50, in which the TCID50 represents the dilution that gives rise to bacterial growth in 50% of inoculated cultures.
(§2) In general, an inoculum level of approximately 100 TCID50 was used for susceptibility testing.
(§3) Flat-bottom, sterile 96-well plastic microtiter plates were filled with 180 μl of sterile deionized water, supplemented with 0.25% BSA. Subsequently, stock solutions (7.8× final test concentration) of compounds were added in 45 μl volumes in column 2 Serial five-fold dilutions (45 μl in […]) were made directly in the microtiter plates from column 2 to reach column 11. Untreated control samples with (column 1) and without (column 12) inoculum were included in each microtiter plate. Depending on the bacteria type, approximately 10 to 60 CFU per well of bacteria inoculum (100 TCID50), in a volume of 100 μl in 2.8× Mueller-Hinton broth medium, was added to the rows A to H, except column 12. The same volume of broth medium without inoculum was added to column 12 in row A to H. The cultures were incubated at 37° C. for 24 hours under a normal atmosphere (incubator with open air valve and continuous ventilation). At the end of incubation, one day after inoculation, the bacterial growth was quantitated fluorometrically. Therefore resazurin (0.6 mg/ml) was added in a volume of 20 μl to all wells 3 hours after inoculation, and the plates were re-incubated overnight. A change in colour from blue to pink indicated the growth of bacteria. The fluorescence was read in a computer-controlled fluorometer (Cytofluor Biosearch) at an excitation wavelength of 530 nm and an emission wavelength of 590 nm. The % growth inhibition achieved by the compounds was calculated according to standard methods.

Assay [2] concerns Streptococcus pneumoniae (ATCC6305). Description: Microtitre plate assay, IC90 determination, SPN 6305. The following applies: 90% inhibitory concentration for bacterial growth, resazurin. On the procedure:
as §1, §2, §3

Setting [3] is: ATCC607, 90% inhibitory concentration for bacterial growth, 48 hours, Alamar Blue fluorescence, read-out: M. smegmatis IC90.
The mark [4] stands for this setting: Staphylococcus aureus ATCC29213, 90% inhibitory concentration for bacterial growth, resazurin, read-out: IC90 (μg/ml) STA 29213.
The mark [5] stands for this setting: Streptococcus pneumoniae ATCC6305, read-out: IC90 (μg/ml) SPN 6305.
[6] abbreviates: 90% inhibitory concentration for bacterial growth, 48 hours, Alamar Blue fluorescence.
Setting [7] is: Staphylococcus aureus ATCC29213, 90% inhibitory concentration for bacterial growth, resazurin.
The mark [8] stands for this setting: Streptococcus pneumoniae ATCC6305.
Setting [9] is: ATCC607, 48 h, read-out: M. smegmatis IC90 (μg/ml), 90% inhibitory concentration for bacterial growth, Alamar Blue fluorescence.
The mark [10] stands for this setting: Staphylococcus aureus, ATCC29213, read-out: IC90 (μg/ml) STA 29213.
[11] abbreviates: Streptococcus pneumoniae, ATCC6305, read-out: IC90 (μg/ml) SPN 6305, Streptococcus pneumoniae ATCC6305.

In brackets after ≈: the same amount, converted by molar mass. Like-named read-outs stand apart in the source and are kept apart here.

For the compound `COc1nc2ccc(Br)cc2cc1C(/C(=C\CN(C)C)c1ccsc1)c1ccccc1` (stereo not drawn) [Compound 16], the IC90 in the assay on M. Smegmatis ATCC607 (setting [3]) was 1.75 µg/mL (≈ 3.55 µM); in assay [1] (setting [4]) it was 7.82 µg/mL (≈ 15.8 µM); in assay [2] (setting [5]), 1.56 µg/mL (≈ 3.16 µM).
For the compound `COc1nc2ccc(Br)cc2cc1C(C(=CCN1CCN(C)CC1)c1ccccc1)c1ccccc1` (racemic) [Compound 48], the “M. smegmatis IC90” value with M. Smegmatis ATCC607 (setting [6]) turned out to be 1.72 µg/mL. In addition, the “IC90 (μg/ml) STA 29213” value in assay [1] (setting [7]) was 10.82 µg/mL (≈ 19.9 µM). Further, the “IC90 (μg/ml) SPN 6305” value in assay [2] (setting [8]) is 2.72 µg/mL (≈ 5.01 µM).
For the compound `c1ccc(/C(CCCCN2CCCCC2)=C(/c2ccccc2)c2cnc3ccccc3c2)cc1` [Compound 49], the IC90 is 7.08 µg/mL (≈ 15.9 µM) in the assay on M. Smegmatis ATCC607 (setting [9]), 44.7 µg/mL (≈ 100 µM) in assay [1] (setting [10]) and 8.91 µg/mL (≈ 19.9 µM) in assay [2] (setting [11]).
`COc1nc2ccc(Br)cc2cc1C(=C(CCN1CCOCC1)c1ccccc1)c1ccccc1` (mixture of isomers) [Compound 43]: the “M. smegmatis IC90” value in the assay on M. Smegmatis ATCC607 (setting [6]) was 4.21 µg/mL. The “IC90 (μg/ml) STA 29213” value in assay [1] (setting [7]) is 52.95 µg/mL. In addition, in assay [2] (setting [8]), the “IC90 (μg/ml) SPN 6305” value worked out at 8.39 µg/mL.
As to `CSc1nc2ccc(-c3ccccc3)cc2cc1C(/C(=C/CN(C)C)c1ccccc1)c1ccccc1` (stereo not drawn) [Compound 20], the IC90 in the assay on M. Smegmatis ATCC607 (setting [9]) was found to be 1.41 µg/mL (≈ 2.82 µM); in assay [1] (setting [10]), 1.58 µg/mL (≈ 3.16 µM); in assay [2] (setting [11]), 1.41 µg/mL (≈ 2.82 µM).
As for `CSc1nc2ccc(Br)cc2cc1C(/C(=C/CN(C)C)c1ccccc1)c1ccccc1` (stereo not drawn) [Compound 4], the IC90 with M. Smegmatis ATCC607 (setting [9]) amounted to 7.98 µg/mL (≈ 15.8 µM); in assay [1] (setting [10]), 40 µg/mL (≈ 79.4 µM); in assay [2] (setting [11]) it was 17.9 µg/mL (≈ 35.5 µM).
As for `Clc1ccc(/C(=C(\CCCCN2CCCCC2)c2ccccc2)c2cnc3ccccc3c2)cc1` [Compound 19], the IC90 in the assay on M. Smegmatis ATCC607 (setting [9]) was 1.52 µg/mL (≈ 3.16 µM).
With `COc1ccc(/C(CCCCN2CCCCC2)=C(/c2ccc(C#N)cc2)c2cnc3ccccc3c2)cc1` [Compound 56], the IC90 with M. Smegmatis ATCC607 (setting [3]) was determined as 7.95 µg/mL (≈ 15.8 µM); in assay [2] (setting [5]) it was 12.6 µg/mL (≈ 25.1 µM).
With `COc1nc2ccc(-c3ccco3)cc2cc1C(/C(=C/CN(C)C)c1cccc2ccccc12)c1ccccc1` (stereo not drawn) [Compound 21], the IC90 amounted to 14.8 µg/mL (≈ 28.2 µM) with M. Smegmatis ATCC607 (setting [9]), 41.7 µg/mL (≈ 79.4 µM) in assay [1] (setting [10]) and 23.4 µg/mL (≈ 44.7 µM) in assay [2] (setting [11]).
Take `COc1nc2ccc(Br)cc2cc1C(=C(CCn1ccnc1)c1ccccc1)c1ccccc1` (single isomer, unassigned) [Compound 5]: the “M. smegmatis IC90” value in the assay with M. Smegmatis ATCC607 (setting [6]) worked out at 5.1 µg/mL. The “IC90 (μg/ml) STA 29213” value in assay [1] (setting [7]) came out at 36.14 µg/mL (≈ 70.8 µM). For the same compound, the “IC90 (μg/ml) SPN 6305” value in assay [2] (setting [8]) turned out to be 36.14 µg/mL (≈ 70.8 µM).
For `COc1nc2ccc(-c3ccco3)cc2cc1/C(=C(/CCN(C)C)c1cccc2ccccc12)c1ccccc1` [Compound 22], the figures for the IC90 (with M. Smegmatis ATCC607 (setting [9]); in assay [1] (setting [10]); in assay [2] (setting [11])) were 1.66 µg/mL (≈ 3.16 µM), 20.9 µg/mL (≈ 39.8 µM) and 20.9 µg/mL (≈ 39.8 µM), respectively.
Take `COc1nc2ccc(-c3cc4ccccc4s3)cc2cc1C(C(=CCN(C)C)c1cccc2ccccc12)c1ccccc1` (mixture of isomers) [Compound 34]: the “M. smegmatis IC90” value in the assay on M. Smegmatis ATCC607 (setting [6]) stood at 2.35 µg/mL. Further, in assay [2] (setting [8]), the “IC90 (μg/ml) SPN 6305” value was 10.51 µg/mL.
For `COc1ccc(/C(=C(\CCCCN2CCCCC2)c2ccccc2)c2cnc3ccccc3c2)cc1` [Compound 57], the IC90 turned out to be 7.55 µg/mL (≈ 15.8 µM) in the assay on M. Smegmatis ATCC607 (setting [9]) and 9.51 µg/mL (≈ 20 µM) in assay [2] (setting [11]).
Regarding `COc1ccc(/C(CCCCN2CCCCC2)=C(/c2ccc(OC)cc2)c2cnc3ccccc3c2)cc1` [Compound 59], the IC90 with M. Smegmatis ATCC607 (setting [3]) was found to be 8.03 µg/mL (≈ 15.8 µM); in assay [2] (setting [5]) it was 11.3 µg/mL (≈ 22.4 µM).
Regarding `COc1nc2ccc(Br)cc2cc1C(C(=CCn1cncn1)c1ccccc1)c1ccccc1` (racemic) [Compound 47], in the assay on M. Smegmatis ATCC607 (setting [6]), the “M. smegmatis IC90” value is 20.36 µg/mL.
For `COc1nc2ccc(Br)cc2cc1C(/C(=C/CCCN1CCCN(C)CC1)c1ccc2ccccc2c1)c1ccccc1` (stereo not drawn) [Compound 63], the IC90 in the assay with M. Smegmatis ATCC607 (setting [3]) amounted to 3.57 µg/mL (≈ 5.63 µM); in assay [1] (setting [4]), 2.25 µg/mL (≈ 3.55 µM).

(Values after patent US20100069366A1, “ANTIBACTERIAL QUINOLINE DERIVATIVES” (JANSSEN-CILAG, priority 2006, published 2010).)
